Consider 23 compounds from ChEMBL document CHEMBL5665443, “Enzyme Inhibitor Single Concentration assay results for EUbOPEN Chemogenomics Library” (2024).

“And” between values parts separate entries of the source, which are not always exact repeats. Identical values can stand only once.

Conditions in all cases: Compound Concentration 10.0 uM, Hit No
The target in experiment [1] is T1, Endonuclease III-like protein 1 (Homo sapiens) (UniProt P78549).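 Further: enzyme assay tracking NTHL1 cutting and release of a quenched double-stranded DNA oligo substrate, read as fluorescence at 594 nm.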
T1 sequence (whole entry): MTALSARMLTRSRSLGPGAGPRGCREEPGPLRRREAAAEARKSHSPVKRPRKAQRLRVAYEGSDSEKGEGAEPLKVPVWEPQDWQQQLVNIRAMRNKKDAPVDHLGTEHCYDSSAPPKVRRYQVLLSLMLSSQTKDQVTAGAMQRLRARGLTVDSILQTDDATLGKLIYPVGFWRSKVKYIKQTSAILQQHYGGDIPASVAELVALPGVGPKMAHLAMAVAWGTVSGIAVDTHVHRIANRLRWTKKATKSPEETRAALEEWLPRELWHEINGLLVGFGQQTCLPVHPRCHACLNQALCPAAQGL
Description: Inhibition of NTHL1 by quantifying inhibition of NTHL1-mediated cleavage and dissociation of quenched duplex DNA oligonucleotides, measured as fluorescence at 594 nm.

The target of experiment [2] is T2, Endonuclease 8-like 2 (Homo sapiens) (UniProt Q969S2).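 Further: fluorescence at 594 nm reports NEIL2 cutting and release of a quenched double-stranded DNA oligo substrate, reduced signal read as inhibition.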
T2 sequence (whole entry): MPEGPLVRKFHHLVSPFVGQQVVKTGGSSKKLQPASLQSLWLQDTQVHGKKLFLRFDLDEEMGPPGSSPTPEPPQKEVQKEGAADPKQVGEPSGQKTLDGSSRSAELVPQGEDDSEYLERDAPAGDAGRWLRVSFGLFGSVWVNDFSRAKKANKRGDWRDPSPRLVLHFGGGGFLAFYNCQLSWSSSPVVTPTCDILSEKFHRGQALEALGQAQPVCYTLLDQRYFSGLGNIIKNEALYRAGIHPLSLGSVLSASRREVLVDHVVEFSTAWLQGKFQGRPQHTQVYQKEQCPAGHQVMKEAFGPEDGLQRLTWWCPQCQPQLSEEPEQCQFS
Description: Inhibition of NEIL2 by quantifying inhibition of NEIL2-mediated cleavage and dissociation of quenched duplex DNA oligonucleotides, measured as fluorescence at 594 nm.

Experiment [3] deals with G/T mismatch-specific thymine DNA glycosylase (Homo sapiens) (UniProt Q13569).
Description: Inhibition of TDG by quantifying inhibition of TDG-mediated cleavage and dissociation of quenched duplex DNA oligonucleotides, measured as fluorescence at 594 nm. To generate a functional strand incision and increase turn-over this assay is coupled to APE1.
In experiment [4] the target is N-glycosylase/DNA lyase (Homo sapiens) (UniProt O15527).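 Further: OGG1 cleavage of a quenched duplex DNA oligonucleotide, coupled to APE1 for strand incision, read as fluorescence at 594 nm.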
Description: Inhibition of OGG1 by quantifying inhibition of OGG1-mediated cleavage and dissociation of quenched duplex DNA oligonucleotides, measured as fluorescence at 594 nm. To generate a functional strand incision and increase turn-over this assay is coupled to APE1.
Experiment [5] addresses Uracil-DNA glycosylase (Homo sapiens) (UniProt P13051).
Description: Inhibition of UNG by quantifying inhibition of UNG-mediated cleavage and dissociation of quenched duplex DNA oligonucleotides, measured as fluorescence at 594 nm. To generate a functional strand incision and increase turn-over this assay is coupled to APE1.
Experiment [6] concerns the target Endonuclease 8-like 1 (Homo sapiens) (UniProt Q96FI4).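 Further: fluorescence at 594 nm from quenched duplex DNA oligonucleotides released by NEIL1 cleavage and strand separation, reported as reduction of this enzyme activity.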
Description: Inhibition of NEIL1 by quantifying inhibition of NEIL1-mediated cleavage and dissociation of quenched duplex DNA oligonucleotides, measured as fluorescence at 594 nm.
For experiment [7], the target named is T3, Single-strand selective monofunctional uracil DNA glycosylase (Homo sapiens) (UniProt Q53HV7).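 Further: enzymatic SMUG1 assay coupled with APE1, reading fluorescence at 594 nm released when a quenched double-stranded DNA oligonucleotide substrate is cleaved and separated.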
T3 sequence (whole entry): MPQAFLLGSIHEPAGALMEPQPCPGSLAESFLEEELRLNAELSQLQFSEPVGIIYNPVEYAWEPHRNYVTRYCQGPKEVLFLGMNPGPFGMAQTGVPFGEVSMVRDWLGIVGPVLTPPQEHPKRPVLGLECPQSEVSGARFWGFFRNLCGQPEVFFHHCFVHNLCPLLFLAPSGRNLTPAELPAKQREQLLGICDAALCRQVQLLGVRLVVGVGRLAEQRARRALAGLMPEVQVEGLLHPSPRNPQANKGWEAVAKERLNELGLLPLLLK
Description: Inhibition of SMUG1 by quantifying inhibition of SMUG1-mediated cleavage and dissociation of quenched duplex DNA oligonucleotides, measured as fluorescence at 594 nm. To generate a functional strand incision and increase turn-over this assay is coupled to APE1.

Sequence of G/T mismatch-specific thymine DNA glycosylase (Homo sapiens) (Q13569 whole entry): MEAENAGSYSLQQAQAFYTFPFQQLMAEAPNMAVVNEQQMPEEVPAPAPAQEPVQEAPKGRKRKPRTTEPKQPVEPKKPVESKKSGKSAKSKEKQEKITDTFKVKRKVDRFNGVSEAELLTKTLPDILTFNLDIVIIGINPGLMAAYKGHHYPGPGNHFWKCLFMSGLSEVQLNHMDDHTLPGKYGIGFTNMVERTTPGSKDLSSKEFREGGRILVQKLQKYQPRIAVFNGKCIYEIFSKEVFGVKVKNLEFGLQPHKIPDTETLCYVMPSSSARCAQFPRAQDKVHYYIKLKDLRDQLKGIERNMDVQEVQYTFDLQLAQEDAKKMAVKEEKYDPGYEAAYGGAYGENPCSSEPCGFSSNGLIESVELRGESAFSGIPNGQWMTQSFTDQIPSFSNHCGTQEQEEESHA
Sequence of N-glycosylase/DNA lyase (Homo sapiens) (O15527 whole entry): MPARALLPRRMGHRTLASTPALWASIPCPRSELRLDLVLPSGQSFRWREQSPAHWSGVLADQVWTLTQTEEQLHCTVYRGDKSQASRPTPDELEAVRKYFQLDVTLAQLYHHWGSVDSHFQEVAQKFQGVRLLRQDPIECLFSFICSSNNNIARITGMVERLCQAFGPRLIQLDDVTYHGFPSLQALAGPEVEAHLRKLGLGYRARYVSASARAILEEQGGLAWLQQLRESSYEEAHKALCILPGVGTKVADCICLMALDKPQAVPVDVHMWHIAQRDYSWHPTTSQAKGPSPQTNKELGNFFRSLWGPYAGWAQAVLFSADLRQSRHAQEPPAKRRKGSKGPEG
Sequence of Endonuclease 8-like 1 (Homo sapiens) (Q96FI4 whole entry): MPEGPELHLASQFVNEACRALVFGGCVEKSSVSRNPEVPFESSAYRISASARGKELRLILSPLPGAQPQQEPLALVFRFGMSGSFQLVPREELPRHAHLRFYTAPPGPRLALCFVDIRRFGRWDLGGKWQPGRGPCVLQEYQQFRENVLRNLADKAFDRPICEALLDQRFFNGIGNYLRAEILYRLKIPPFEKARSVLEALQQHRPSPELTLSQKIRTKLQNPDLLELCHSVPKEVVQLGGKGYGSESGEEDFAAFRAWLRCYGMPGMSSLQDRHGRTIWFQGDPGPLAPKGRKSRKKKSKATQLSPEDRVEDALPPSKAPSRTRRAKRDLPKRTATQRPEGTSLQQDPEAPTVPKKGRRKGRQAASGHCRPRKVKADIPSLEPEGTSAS
Sequence of Uracil-DNA glycosylase (Homo sapiens) (P13051 whole entry): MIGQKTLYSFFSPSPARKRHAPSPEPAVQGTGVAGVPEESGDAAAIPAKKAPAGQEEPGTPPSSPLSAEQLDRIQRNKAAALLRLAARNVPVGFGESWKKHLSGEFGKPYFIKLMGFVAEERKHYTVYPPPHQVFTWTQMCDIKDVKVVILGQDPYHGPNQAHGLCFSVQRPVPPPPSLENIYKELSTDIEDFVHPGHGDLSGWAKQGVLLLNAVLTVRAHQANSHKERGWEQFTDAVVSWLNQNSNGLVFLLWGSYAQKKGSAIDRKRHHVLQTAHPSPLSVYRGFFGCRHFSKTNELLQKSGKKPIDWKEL

One may read the inhibition as the drop in the measured response relative to a control, in per cent. Turning to `S=C(NCCCc1c[nH]cn1)NCCCN(Cc1ccc(Cl)c(Cl)c1)c1ccc(Br)cn1`, the inhibition in experiment [1] is 7.05%; in experiment [2], -7.72% and 0.265%; in experiment [3], -1.74%; in experiment [4], -8.08% and 0.522%; in experiment [5], -7.82% and -8.52%; in experiment [6] it was -8.51% and -1.24%. In addition, in experiment [7], the inhibition was found to be 0.354%.

Consider `OC1(c2ccc(Cl)cc2)CCN(Cc2c[nH]c3ccccc23)CC1`, for which the inhibition is 7.05% in experiment [1]; 5.51% in experiment [2]; 17.2% in experiment [3]; -9.04% in experiment [4]; -8.06% in experiment [5]; -5.1% in experiment [6]. In addition, the inhibition in experiment [7] is -1.92%.

Turning to `O=C1O[C@]2(CC[C@H](C(=O)Nc3ccn(-c4ccccc4F)n3)CC2)c2cnccc21`, the inhibition was -1.74% in experiment [1]; -7.47% in experiment [2]; 1.4% in experiment [3]; -9.12% in experiment [4]; -8.76% in experiment [5]; -8.51% in experiment [6]. Besides, the inhibition in experiment [7] is 3.16%.

With `Cc1c(P(=S)(c2ccccc2)c2ccccc2)n2ccccc2[n+]1C/C=C/c1ccccc1`, the inhibition in experiment [1] is 23.9%; in experiment [2] it was -6.97%; in experiment [3], 35.9%; in experiment [4], 1.08%; in experiment [5] it was -7.24%; in experiment [6], 11.1%. Further, the inhibition in experiment [7] is -6.48%.

Consider `CN(C)S(=O)(=O)c1ccc(NC(=S)N2CCC(C(O)(c3ccccc3)c3ccccc3)CC2)cc1`, for which the inhibition in experiment [1] is 16.6%; in experiment [2], 0.265%; in experiment [3] it was -1.66%; in experiment [4] it was -3.65%; in experiment [5], -7.47%; in experiment [6] it was -0.797%. For the same compound, the inhibition in experiment [7] was 3.26%.

As for `COc1cc(Nc2nccc(-c3cnn4nc(OC)ccc34)n2)cc(C(F)(F)F)c1`, the inhibition in experiment [1] is 0.785%; in experiment [2], -0.842%; in experiment [3] it was 8.41%; in experiment [4], 8.51%; in experiment [5], -0.0969%; in experiment [6], 11.1%. The inhibition in experiment [7] is 1.75%.

Turning to `C[C@@H](O[C@H]1OCCN(Cc2n[nH]c(=O)[nH]2)[C@H]1c1ccc(F)cc1)c1cc(C(F)(F)F)cc(C(F)(F)F)c1`, the inhibition in experiment [1] is -1.01%; in experiment [2], 8.5%; in experiment [3], 0.716%; in experiment [4], -7.13%; in experiment [5], -3.75%; in experiment [6], 5.88%. The inhibition in experiment [7] was -5.17%.

In the case of `CC(=O)c1ccc2c(c1)[C@@H]1C=CC[C@@H]1[C@H](c1cc3c(cc1Br)OCO3)N2`, the inhibition in experiment [1] is 11.4%; in experiment [2], 9.25%; in experiment [3], 13.5%; in experiment [4], 2.12%; in experiment [5] it was -3.58%; in experiment [6] it was 1.72%. In addition, the inhibition in experiment [7] was found to be 5.25%.

Regarding `CN1C[C@H](C(=O)N[C@]2(C)O[C@@]3(O)[C@@H]4CCCN4C(=O)[C@H](Cc4ccccc4)N3C2=O)C[C@@H]2c3cccc4[nH]cc(c34)C[C@H]21`, the inhibition is 15.8% in experiment [1]; 7% in experiment [2]; 7.37% in experiment [3]; -8.52% in experiment [4]; -3.4% in experiment [5]; 9.88% in experiment [6]. Moreover, the inhibition in experiment [7] is 0.306%.

For the compound `CN(C)C(=O)C(CCN1CCC(O)(c2ccc(Cl)cc2)CC1)(c1ccccc1)c1ccccc1`, the inhibition in experiment [1] is 28.3%; in experiment [2] it was 7.75%; in experiment [3], 5.3%; in experiment [4], -5.28%; in experiment [5], -5.39%; in experiment [6], 7.8%. For the same compound, in experiment [7], the inhibition is -1.44%.

Consider `Cc1onc(O)c1CC(N)C(=O)O` (stereo not drawn), for which the inhibition in experiment [1] is -3.56%; in experiment [2], -2.64%; in experiment [3], 5.29%; in experiment [4], -2.69%; in experiment [5], -3.91%; in experiment [6], -4.58%. Moreover, the inhibition in experiment [7] was -3.23%.

Take `COc1ccc(NS(=O)(=O)c2sc3ccc(Cl)cc3c2C)cc1N1CCNCC1`: the inhibition is -3.94% in experiment [1]; 1.51% in experiment [2]; 18% in experiment [3]; -6.55% in experiment [4]; -3.02% in experiment [5]; 16% in experiment [6]. Besides, the inhibition in experiment [7] came to 12%.

In the case of `CN(c1ncccc1CNc1ccnc(-c2nc3c(F)c(Cl)ccc3[nH]2)n1)S(C)(=O)=O`, the inhibition in experiment [1] was 9.15%; in experiment [2], -8.38%; in experiment [3], 35.5%; in experiment [4] it was -6.69%; in experiment [5], -1.37%; in experiment [6], 1.59%. In experiment [7], the inhibition came to 9.82%.

In the case of `CC1=C2C[C@H]3[C@@H](CC=C4C[C@@H](O)CC[C@@]43C)[C@@H]2CC[C@]12O[C@@H]1C[C@H](C)CN[C@H]1[C@H]2C`, the inhibition is -6.14% in experiment [1]; 1.26% in experiment [2]; 5.99% in experiment [3]; -3.73% in experiment [4]; -9.72% in experiment [5]; -3.61% in experiment [6]. Further, the inhibition in experiment [7] was 2.68%.

Turning to `CC(C)(C)c1cc(C(C)(C)C)c(NC(=O)c2c[nH]c3ccccc3c2=O)cc1O`, the inhibition in experiment [1] was 14.6%; in experiment [2], 5.25%; in experiment [4], -6.32%; in experiment [5] it was 1.6%; in experiment [6] it was 1.34%; in experiment [7] it was 6.2%.

Turning to `CCNC1(C(N)=O)CCN(c2ncnc3c2nc(-c2ccccc2Cl)n3-c2ccc(Cl)cc2)CC1`, the inhibition in experiment [1] is 17.3%; in experiment [2], 3.76%; in experiment [3], 11.7%; in experiment [4] it was -3.75%; in experiment [5], -6.19%; in experiment [6], 1.13%. Besides, the inhibition in experiment [7] was determined as 12.2%.

Turning to `COc1cc(OC)c(NC(=O)c2ccc(Cc3cc4c(cc3C)C(C)(C)CCC4(C)C)o2)c(OC)c1`, the inhibition in experiment [1] was 19.5%; in experiment [2], 14.7%; in experiment [3] it was 1.84%; in experiment [4] it was 2.66%; in experiment [5], -5.24%; in experiment [6] it was 7.51%. Also, in experiment [7], the inhibition is -2.6%.

As to `C[C@H](Cc1cc2c(c(C(N)=O)c1)N(CCCO)CC2)NCCOc1ccccc1OCC(F)(F)F`, the inhibition in experiment [1] is -1.01%; in experiment [2], -1.48%; in experiment [3], 2.34%; in experiment [4], -6.28%; in experiment [5] it was -9.87%; in experiment [6], -4.21%. The inhibition in experiment [7] is 1.13%.

On to `N#Cc1ccc(Cn2ccc(NC(=O)Cc3ccc(C4(C(F)(F)F)CC4)cc3)n2)nc1`, for which the inhibition in experiment [1] is 17.1%; in experiment [2] it was -3.66%; in experiment [3] it was -8.44%; in experiment [4], -2.87%; in experiment [5], -0.478%; in experiment [6] it was 4.9%. Moreover, the inhibition in experiment [7] is -0.24%.

Turning to `OCCN1CCN(CCCN2c3ccccc3Sc3ccc(Cl)cc32)CC1`, the inhibition in experiment [1] was 3.39%; in experiment [2], 12.5%; in experiment [3], 3.7%; in experiment [4], -8.6%; in experiment [5] it was -5.33%; in experiment [6], 17.1%. Besides, the inhibition in experiment [7] was -0.808%.

As for `NCCCNCCCCNCCC(=O)NCCCCCNC(=O)[C@H](CC(N)=O)NC(=O)Cc1ccc(O)cc1O`, the inhibition is -0.258% in experiment [1]; -3.66% in experiment [2]; 0.0747% in experiment [4]; -1.11% in experiment [5]; 0.898% in experiment [6]; -7.3% in experiment [7].

For `O=c1c2cccn2c2ccccc2n1CCCN1CCC(c2ccc(Cl)cc2)CC1`, the inhibition is 6.32% in experiment [1]; 7.75% in experiment [2]; 2.78% in experiment [3]; -2.48% in experiment [4]; -8.09% in experiment [5]; 10.5% in experiment [6]. Besides, the inhibition in experiment [7] was 5.73%.

Take `O=C(Nc1ccc(-n2nc(C(F)(F)F)cc2C(F)(F)F)cc1)c1ccncc1F`: the inhibition in experiment [1] is -4.39%; in experiment [2] it was -8.25%; in experiment [4] it was -5.81%; in experiment [5], -0.503%; in experiment [6], 3.86%; in experiment [7] it was -4.65%.
